Drawing on a melting point compilation (Tetko et al.; mined from patent text by program, amines drawn as free bases though some values may be those of a salt), this text covers melting point for 88 molecules.

SMILES strings stand for the structures.

A word on the melting point: it is the temperature of the solid-liquid transition. As to `Fc1ccc(Nc2ncnc3ccc(-c4ccsc4)cc23)cc1Cl`, the melting point was 195 to 197 °C.

As to `CC(=O)COc1ccn2nc(-c3ccccc3)c(-c3ccc(=O)n(C(C)C)n3)c2c1`, the melting point lay within 172 to 174 °C. Under `NCC(COC(C(F)(F)F)(C(F)(F)F)C(F)(F)F)(COC(C(F)(F)F)(C(F)(F)F)C(F)(F)F)C(=O)O` stands 182 to 184 °C; under `Fc1ccc2c(c1)Oc1ccccc1-c1nc(S)[nH]c1-2`, 299 to 300 °C.

As for `O=C(NC1CCCCC1)C(Br)c1ccccc1` (stereo not drawn), the melting point lay in the range of 126 to 127 °C.

On to `CCCCc1nc(Sc2ccccc2)c(CO)n1Cc1ccc(-c2ccccc2C(=O)O)cc1`, for which the melting point was found to be 215 °C. Under `CCN1C(=O)C(C)(C)c2ccc(C(=O)Nc3ccc(F)cc3)cc21` stands 179 to 181 °C. The molecule `CCCc1c(OCCCSc2nnc(SCC(=O)O)s2)ccc(C(C)=O)c1O` had a melting point of 129 to 130 °C. `COCn1c(C)nc2nc(O)cnc2c1=O`: the melting point lay within 224 to 226 °C. The result for `CCOCCn1c(NC2CCN(CC#N)CC2)nc2cccnc21` reads 141 °C. Molecule `CN(C)CCCCCOc1ccc(-c2nnc(CSCCOc3ccccc3)o2)cc1` yielded a melting point of 51 to 54 °C. The result for `O=S1(=O)c2ccccc2Nc2c1c(O)c(O)c1ccccc21` reads 330 °C. The result for `CC1CN(c2ccc([N+](=O)[O-])cc2Cl)C(=O)O1` (stereo not drawn) reads 73 to 75 °C; that for `O=C(c1ccccc1F)C1CCN(C(=O)Oc2ccccc2)CC1`, 95 to 96 °C; that for `CNC(=S)Nc1nc(C(C)c2ccc(-c3ccccc3)c(F)c2)cs1` (stereo not drawn), 180 to 181 °C. The result for `Cc1cc(O)c(C)c(C)c1OC(=O)C(C)(C)C` reads 88 to 112 °C. `CC(C)(NC(=O)Oc1ccc([N+](=O)[O-])cc1)C(F)(F)F` came in with a melting point of 77 to 80 °C. `CC(C)c1cccc(C(C)C)c1NC(=O)CNCC1(Nc2ccccc2)CCCCC1` returned a melting point of 104 to 106 °C. The result for `CS(=O)(=O)OCCOc1ccccc1OCc1ccccc1` reads 98 to 100 °C; that for `CS(=O)(=O)OCCCCCCNC(=O)CNC(=O)OCc1ccccc1`, 82 to 83 °C; that for `CN1CC=C(c2c[nH]c3ccc([N+](=O)[O-])cc23)C(F)C1` (stereo not drawn), 94 to 96 °C.

With `Cc1ccc(N(C)S(=O)(=O)c2cccs2)c2[nH]c(-c3ncc(CN4CCC(O)C4)s3)cc12` (stereo not drawn), the melting point lay in the range of 190 to 191 °C. Under `O=c1[nH]c2ccc(C3=NOC(CN4CCC(Cc5ccc(F)cc5)C(O)C4)C3)cc2o1` (stereo not drawn) stands 224 to 233 °C. Under `FC(F)(F)Oc1ccc2nc(Cl)sc2c1` stands under 50 °C; under `CCNc1cc(C)c(S(=O)(=O)C[N+](=O)[O-])c(C)c1`, 143 °C; under `CC(=O)NC(=Cc1c[nH]c2cc(Cl)ccc12)C(=O)O`, 225 °C. Turning to `COc1cc(-n2cc(C(=O)O)c(=O)c3cc(F)c(F)c(Cl)c32)ccc1F`, the melting point was over 280 °C.

On to `Cn1cc(C2=C(c3c4n(c5ccccc35)CCN(C(=O)OC(C)(C)C)C4)C(=O)OC2=O)c2ccccc21`, for which the melting point was 125 to 127 °C. The result for `O=C1CC(c2ccccc2)Cc2nccc(Cl)c21` (stereo not drawn) reads 71 to 72 °C; that for `N#CC1=C(c2ccccc2)Nc2n[nH]cc2C1c1cccc(Cl)c1Cl` (stereo not drawn), 162 °C; that for `COc1cc(Oc2ccc(C(=O)N(C(C)C)C3CCCCC3)cc2)cc(OC)c1OC`, 124 °C. In the case of `Cc1nc2c(O)c(CCC(O)c3ccccc3)c(C(=O)N(C)C)cc2n1C` (stereo not drawn), the melting point lay in the range of 216 to 218 °C. The result for `O=[N+]([O-])c1cccc(-c2ncc[nH]2)c1` reads 193 to 194 °C; that for `COc1ccc(CCNc2nc(N)c3nc(-c4ccco4)oc3n2)cc1OC`, 155 to 158 °C; that for `Cc1cc(-c2c(F)c(F)c3c(=O)c(C(=O)O)cn4c3c2OC[C@@H]4C)cc(C)n1`, 307 to 310 °C. Under `COc1ccc(N2CCN(c3c(C)c(C)c4c(c3C(C)C)CC(C)(C)O4)CC2)cc1` stands 192 to 194 °C; under `C/C(=C\c1ccc(C(=O)O)cc1)c1ccc2c(c1)C(C)(C)C(O)CC2(C)C` (stereo not drawn), 250 to 252 °C; under `CCCCc1oc2ccccc2c1C(=O)NCc1ccc2c(-c3ccc(Cl)cc3)c(OCc3nnn[nH]3)ccc2c1`, 208 to 211 °C. Under `CS(=O)c1nccc(-c2nc(=O)c3ccccc3s2)n1` (stereo not drawn) stands 250 to 252 °C; under `O=C(O)C1OCc2ccccc2O1` (stereo not drawn), 88 °C; under `O=S1(=O)N=C(O)C(c2ccccc2)=N1`, 202 to 204 °C.

`N[C@@H](Cc1cccc(OCC(F)(F)C(F)F)c1)[C@H](O)c1ccc(F)cc1` (racemic): the melting point was 77 to 78 °C. Under `CCSc1cc(C)nc(SCC)c1NC(=O)CCCSc1nc2ccccc2s1` stands 119 to 120 °C; under `CCOC(=O)c1cnn2c1c(OCC)nc1c(C)nn(C)c12`, 116 to 118 °C. For `COC(=O)CCCc1cc2nc(Cl)ccc2n1S(=O)(=O)c1ccc(N2CCOCC2)cc1`, the melting point is 110 °C. Under `C=CCOC1CCC2C3CCC4CC(=O)CCC4(C)C3CCC12C` (stereo not drawn) stands 122 to 124 °C; under `COc1ccc2c(C(=O)C3CSC(c4cccnc4)N3)c[nH]c2c1` (stereo not drawn), 86 to 88 °C. The molecule `O=c1[nH]c2cc(Cl)ccc2c(O)c1-c1cccc(Cc2ccc(O)cc2)c1` had a melting point of 288 to 292 °C. Under `CC(C)(Nc1c(Cl)cccc1[N+](=O)[O-])C(=O)O` stands 107 to 109 °C; under `N#Cc1ccc(OCC[C@@H](NC(=O)OCc2ccccc2)C(=O)OC(c2ccccc2)c2ccccc2)cc1`, 125 to 126 °C; under `CC(=O)N(N=Cc1c(Cl)cccc1Cl)c1nncn1N(C(C)=O)C(C)=O`, 140 to 150 °C. Under `CC(C(=O)O)N(O)C(C)(C)C` (stereo not drawn) stands 73 to 74 °C; under `CNc1nc(-c2ccc(Cl)c(Cl)c2)ncc1N(C)C(=O)N1CCOCC1`, 227 °C; under `COCCc1nc2c(N)nc3ccccc3c2n1CCCNS(=O)(=O)c1ccccc1`, 149 to 151 °C. Under `CCN(CC)C(=O)c1cc(-c2ccc(OC)cc2)c2ccccc2c1` stands 147 to 149 °C; under `COc1ccc(C(=O)CC2CCCCC2=O)cc1` (stereo not drawn), 98 to 99 °C; under `COC(=O)c1cc(-c2ccncc2)sc1-c1ccncc1`, 133 to 135 °C. Consider `CC(C)(C)OC(=O)Nc1cccc(C(=O)NCCC(=O)OCc2ccccc2)c1`, for which the melting point was 130 to 131 °C. On to `CCCc1ccc(C=O)n1Cc1ccc(-c2ccccc2-c2nnn[nH]2)cc1`, for which the melting point lay in the range of 68 to 71 °C. The result for `Cc1cccc2nnc(-c3ccccc3)c(Cl)c12` reads 128 °C; that for `CCCCCC(=O)OC1(c2nc(OC)cc(OC)n2)OC(=O)c2c(Cl)ccc(Cl)c21` (stereo not drawn), 103 to 105 °C; that for `CCOCC(=O)Nc1c(NCCNC(=O)OC(C)(C)C)c(C)c(C)n2nnnc12`, 138 to 142 °C. The result for `Cc1cccc(NC(=O)NCC(=O)N(CC(=O)OC(C)(C)C)c2ccccc2Oc2ccccc2)c1` reads 204 °C; that for `CCCCc1ccc(-c2nc3ccccc3[nH]2)nc1`, 138 to 139 °C. Under `Cc1ccc(CN[C@H](CO)Cc2ccccc2)cc1` stands 125 to 127 °C; under `COc1ccc(C2(c3ccc(N(C)C)cc3)OC(=O)c3ccc(N(C)C)cc32)cc1` (stereo not drawn), 156 to 161 °C; under `CCCCCS(=O)(=O)NC(=O)/C=C/c1ccc(OCCOC)cc1Cc1ncc(Br)s1`, 88.5 to 89.1 °C. Turning to `O=c1c2c(Cl)cc(Cl)cc2n(Cc2ccccc2)c(=O)n1Cc1ccccc1Br`, the melting point was 129 to 132 °C. Under `CC(C)c1cccc(C(C)C)c1NS(=O)(=O)CC(=S)Oc1c(C(C)C)cccc1C(C)C` stands 169 to 171 °C; under `Cc1ccc(NC(=O)c2ccc(/C=C/C(=O)NOC3CCCCO3)cc2)cc1Nc1nc(-c2cccnc2)cs1` (stereo not drawn), 168 °C; under `NC(=O)/C(=N/O)c1ccccc1Oc1ccccc1`, 157 to 159 °C. Consider `CCOC(=O)C1=C(C)NC(CO)=C(C(=O)OCC)C1c1cccs1` (stereo not drawn), for which the melting point lay in the range of 125 to 126 °C. The result for `Cc1ccccc1-c1nc(N)ncc1-c1ccc(=O)n(C)n1` reads 229 °C. The result for `CN1C(=O)C(C(=O)Nc2ccc(C(F)(F)F)cc2)S(=O)(=O)c2cc(F)ccc21` (stereo not drawn) reads 146 to 148 °C; that for `CCC(CC)Nc1nc(C)nc(Oc2c(C)cc(C)nc2C)c1[N+](=O)[O-]`, 134 to 135 °C; that for `CCOc1ccc(-c2ccc3c(c2)C=C(C(=O)Nc2ccc(CN(C)C4CCOCC4)cc2)CCS3(=O)=O)cc1Cl`, 201 to 204 °C.

As for `CCC(=O)C1C(=O)CC(c2ccc(C3CC(=O)C(C(=O)CC)C(=O)C3)cc2)CC1=O` (stereo not drawn), the melting point was 261 °C.

`CC(C)=CCc1cc(C=CC(=O)c2ccc(O)cc2O)ccc1O` showed a melting point of 167 °C. Under `CC(=O)OC1CCC2(C)C(=CC(=O)C3C2CCC2(C)C(C(C)CCCC(C)C)CCC32)C1` (stereo not drawn) stands 151 to 154 °C; under `CC(C)n1nc(-c2sc(C(=O)NCc3ccccn3)nc2-c2cccc(F)c2)ccc1=O`, 188 to 190 °C; under `COc1c(N2CCNCC2)c(F)c(N)c2c(=O)c(C(=O)O)cn(C3CC3)c12`, 271 to 273 °C.

`CC(=O)N1CCC(CCc2ccc(N(C)C)cc2)CC1` displayed a melting point of 49 to 51 °C.

`CC1(C)CON(Cc2cc(N3C(=O)C4=C(CCCC4)C3=O)c(F)cc2Cl)C1=O` gave a melting point of 136 to 138 °C. Under `CCCc1cccnc1N` stands 25 to 27 °C; under `Cc1cc(O)c(S(=O)(=O)C(C)(C)C)c(=O)o1`, 119 to 120 °C.

`COc1cncc(-c2cncc(OC3SCC(O)C(O)C3O)c2)c1` (stereo not drawn): the melting point amounted to 193 °C. The result for `CC(C)(C)OC(=O)NCCNC(=O)c1ncsc1-c1ccccc1` reads 139 to 140 °C; that for `Oc1cc(Br)ccc1Br`, 71 to 74 °C.
